Assay results reported in ChEMBL document CHEMBL1130843, “Design and synthesis of an orally active GPIIb/IIIa antagonist based on a phenylpiperazine scaffold” (Bioorg Med Chem Lett, 1998).

How the values were obtained:
[1] = molecular target: Integrin alpha-IIb/beta-3 (Homo sapiens, UniProt P05106+P08514); assay: Inhibition of fibrinogen binding to platelet glycoprotein alpha IIb beta-3 integrin in ELISA
[2] = species: Cavia porcellus; assay: Compound was tested for inhibition of ADP induced platelet aggregation in guinea pig; assay type: functional
[3] = species: Homo sapiens; assay: Compound was tested for inhibition of ADP induced platelet aggregation in human platelet-rich plasma; assay type: functional

Chain of Integrin alpha-IIb/beta-3 (P05106 27-788 limits assumed): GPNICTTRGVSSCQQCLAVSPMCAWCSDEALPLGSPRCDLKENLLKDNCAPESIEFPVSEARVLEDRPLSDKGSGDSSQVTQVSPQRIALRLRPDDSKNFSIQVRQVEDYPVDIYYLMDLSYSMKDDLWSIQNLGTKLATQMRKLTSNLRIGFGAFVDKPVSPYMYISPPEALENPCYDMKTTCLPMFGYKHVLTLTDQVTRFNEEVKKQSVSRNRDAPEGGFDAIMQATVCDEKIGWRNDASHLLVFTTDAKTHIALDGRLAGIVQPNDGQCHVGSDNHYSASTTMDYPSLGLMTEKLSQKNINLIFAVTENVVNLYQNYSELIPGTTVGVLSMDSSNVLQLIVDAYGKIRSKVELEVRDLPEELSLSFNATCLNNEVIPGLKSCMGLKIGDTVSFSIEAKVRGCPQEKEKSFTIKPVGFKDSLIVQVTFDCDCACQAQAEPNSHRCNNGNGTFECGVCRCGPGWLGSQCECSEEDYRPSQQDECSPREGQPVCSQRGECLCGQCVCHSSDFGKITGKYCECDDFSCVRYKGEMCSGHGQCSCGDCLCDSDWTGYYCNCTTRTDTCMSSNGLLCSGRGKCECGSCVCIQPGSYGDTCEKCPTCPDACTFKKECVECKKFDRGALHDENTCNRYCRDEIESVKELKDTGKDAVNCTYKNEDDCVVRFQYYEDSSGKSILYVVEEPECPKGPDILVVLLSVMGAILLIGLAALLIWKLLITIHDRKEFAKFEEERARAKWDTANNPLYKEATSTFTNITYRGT
Chain of Integrin alpha-IIb/beta-3 (P08514 32-887 limits assumed): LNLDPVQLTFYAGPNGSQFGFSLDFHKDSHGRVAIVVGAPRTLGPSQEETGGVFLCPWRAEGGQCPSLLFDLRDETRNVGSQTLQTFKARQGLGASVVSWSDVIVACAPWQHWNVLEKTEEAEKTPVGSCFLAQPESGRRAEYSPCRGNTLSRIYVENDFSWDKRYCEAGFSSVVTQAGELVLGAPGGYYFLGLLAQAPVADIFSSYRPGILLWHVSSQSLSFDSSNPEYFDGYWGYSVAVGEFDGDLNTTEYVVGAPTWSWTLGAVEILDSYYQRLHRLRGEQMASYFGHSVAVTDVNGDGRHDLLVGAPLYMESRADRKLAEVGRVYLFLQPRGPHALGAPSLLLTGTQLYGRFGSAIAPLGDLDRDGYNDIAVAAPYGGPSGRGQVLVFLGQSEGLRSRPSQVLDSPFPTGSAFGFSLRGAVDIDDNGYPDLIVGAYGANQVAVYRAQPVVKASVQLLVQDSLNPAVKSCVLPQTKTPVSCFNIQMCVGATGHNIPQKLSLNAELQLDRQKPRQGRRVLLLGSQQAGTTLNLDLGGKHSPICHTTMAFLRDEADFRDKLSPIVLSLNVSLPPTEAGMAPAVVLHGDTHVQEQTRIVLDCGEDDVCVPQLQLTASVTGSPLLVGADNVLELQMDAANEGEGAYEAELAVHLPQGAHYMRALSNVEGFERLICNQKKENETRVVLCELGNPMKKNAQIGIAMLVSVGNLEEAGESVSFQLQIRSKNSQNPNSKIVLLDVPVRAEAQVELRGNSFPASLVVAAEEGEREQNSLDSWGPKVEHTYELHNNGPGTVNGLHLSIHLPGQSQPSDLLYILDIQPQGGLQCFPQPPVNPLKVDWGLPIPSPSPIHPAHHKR
Chain of Integrin alpha-IIb/beta-3 (P08514 891-1039 limits assumed): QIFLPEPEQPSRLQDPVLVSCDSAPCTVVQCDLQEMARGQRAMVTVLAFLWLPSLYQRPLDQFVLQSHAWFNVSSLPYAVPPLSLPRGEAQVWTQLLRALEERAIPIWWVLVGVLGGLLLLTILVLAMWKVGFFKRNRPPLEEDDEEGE

SMILES | IC50 [1] | IC50 [2] | IC50 [3]
N=C(N)c1ccc(N2CCN(c3ccc(CC(=O)O)cc3)CC2)cc1 | 1000 nM |  | 
N=C(N)c1ccc(N2CCN(Cc3cccc(OCC(=O)O)c3)CC2)cc1 | 3980 nM |  | 
CN(CC(=O)c1ccc(OCC(=O)O)c(OCC(=O)O)c1)C(=O)c1ccc(C(=N)N)cc1 | 1 nM | 251 nM | 
N=C(N)c1ccc(N2CCN(C3CCN(CC(=O)O)CC3)CC2)cc1 | 7.94 nM | 251 nM | 631 nM
N=C(N)c1ccc(N2CCN(c3ccc(OCCCC(=O)O)cc3)CC2)cc1 | > 10000 nM |  | 
N=C(N)c1ccc(CN2CCN(c3ccc(CC(=O)O)cc3)CC2)cc1 | 2510 nM |  | 
N=C(N)c1ccc(N2CCN(c3ccc(CCC(=O)O)cc3)CC2)cc1 | 25.1 nM |  | 
N=C(N)c1ccc(N2CCN(c3ccc(OCC(=O)O)cc3)CC2)cc1 | 2 nM | 3160 nM | 1000 nM
N=C(N)c1ccc(N2CCN(c3cccc(OCC(=O)O)c3)CC2)cc1 | 2000 nM |  | 
CC(C)(Oc1ccc(N2CCN(c3ccc(C(=N)N)cc3)CC2)cc1)C(=O)O | 1000 nM |  | 
N=C(N)c1ccc(N2CCN(Cc3ccc(CC(=O)O)cc3)CC2)cc1 | 200 nM |  | 
N=C(N)c1ccc(CN2CCN(c3cccc(OCC(=O)O)c3)CC2)cc1 | 15800 nM |  | 
N=C(N)c1ccc(N2CCN(c3cccc(CC(=O)O)c3)CC2)cc1 | 1580 nM |  | 
N=C(N)c1ccc(CN2CCN(c3cccc(CC(=O)O)c3)CC2)cc1 | 39800 nM |  | 
N=C(N)c1ccc(N2CCN(Cc3cccc(CC(=O)O)c3)CC2)cc1 | 1260 nM |  | 
